Assay results: PubChem BioAssay AID1918991 (Molecular Pharmacology Branch, DTP, NCI, 2023)

System: 186277-243-T-J2-PDC complex spheroid growth
Experiment: Anticancer human tumor 186277-243-T-J2-PDC patient-derived colon adenocarcinoma cell line growth inhibition [AhR]
Conditions: for IC50: curve of first compound; for viability, T/C: stronger effect = lower value
Summary of the method: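 Complex tumor spheroids co-cultured with HUVEC and human MSC stroma; AhR antagonists tested in combination with standard-of-care and investigational agents. Top concentration at or near clinical Cmax (else 10 microM), half-log dilutions; growth expressed as percent test/control.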

[1] = second compound 0.1 µM, first compound 0.0316 µM
[2] = second compound 0.1 µM, first compound 0.1 µM
[3] = second compound 0.1 µM, first compound 0.316 µM
[4] = second compound 0.1 µM, first compound 1 µM
[5] = second compound 0.1 µM, first compound 3.16 µM
[6] = second compound 0.1 µM, first compound 10 µM
[7] = second compound 0.316 µM, first compound 0.0316 µM
[8] = second compound 0.316 µM, first compound 0.1 µM
[9] = second compound 0.316 µM, first compound 0.316 µM
[10] = second compound 0.316 µM, first compound 1 µM
[11] = second compound 0.316 µM, first compound 3.16 µM
[12] = second compound 0.316 µM, first compound 10 µM
[13] = second compound 1 µM, first compound 0.0316 µM
[14] = second compound 1 µM, first compound 0.1 µM
[15] = second compound 1 µM, first compound 0.316 µM
[16] = second compound 1 µM, first compound 1 µM
[17] = second compound 1 µM, first compound 3.16 µM
[18] = second compound 1 µM, first compound 10 µM
[19] = second compound 3.16 µM, first compound 0.0316 µM
[20] = second compound 3.16 µM, first compound 0.1 µM
[21] = second compound 3.16 µM, first compound 0.316 µM
[22] = second compound 3.16 µM, first compound 1 µM
[23] = second compound 3.16 µM, first compound 3.16 µM
[24] = second compound 3.16 µM, first compound 10 µM
[25] = second compound 10 µM, first compound 0.0316 µM
[26] = second compound 10 µM, first compound 0.1 µM
[27] = second compound 10 µM, first compound 0.316 µM
[28] = second compound 10 µM, first compound 1 µM
[29] = second compound 10 µM, first compound 3.16 µM
[30] = second compound 10 µM, first compound 10 µM
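Also: spheroids exposed to compounds for seven days before the viability read.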
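For viability, T/C in this document: luminescent signal used as a stand-in for viable cell amount; 100% = DMSO vehicle control wells.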

Structure (SMILES) | IC50 (second compound 0.1 µM) [µM] | IC50 (second compound 0.316 µM) [µM] | IC50 (second compound 1 µM) [µM] | IC50 (second compound 3.16 µM) [µM] | IC50 (second compound 10 µM) [µM] | viability, T/C [1] [%] | viability, T/C [2] [%] | viability, T/C [3] [%] | viability, T/C [4] [%] | viability, T/C [5] [%] | viability, T/C [6] [%] | viability, T/C [7] [%] | viability, T/C [8] [%] | viability, T/C [9] [%] | viability, T/C [10] [%] | viability, T/C [11] [%] | viability, T/C [12] [%] | viability, T/C [13] [%] | viability, T/C [14] [%] | viability, T/C [15] [%] | other results
CC(C)c1c(-c2ccccc2)nc2c(C#N)c[nH]n2c1=O + CC(CO)NC(=O)c1cc(-c2ccc(Cl)cc2)nn(-c2cnn(C)c2)c1=O | > 10 | > 10 | > 10 | > 10 | > 10 | 95.2 | 93.5 | 88.4 | 95.5 | 89.5 | 79.6 | 99.5 | 100 | 109 | 92.9 | 99.2 | 91.7 | 104 | 113 | 105 | viability, T/C [16]: 104%; viability, T/C [17]: 86.4%; viability, T/C [18]: 93.8%; viability, T/C [19]: 92.2%; viability, T/C [20]: 85.1%; viability, T/C [21]: 91.9%; viability, T/C [22]: 89.8%; viability, T/C [23]: 87.3%; viability, T/C [24]: 95%; viability, T/C [25]: 90.2%; viability, T/C [26]: 85.1%; viability, T/C [27]: 81.8%; viability, T/C [28]: 85.5%; viability, T/C [29]: 76.9%; viability, T/C [30]: 87.3%
COc1cc(C2c3cc4c(cc3C(OC3OC5COC(C)OC5C(O)C3O)C3COC(=O)C23)OCO4)cc(OC)c1O (stereo not given) + Cc1ccccc1N=Nc1ccc(NC(=O)c2ccnn2C)c(C)c1 | 8.92 | 7.74 | 7.57 | 7.22 | 7.39 | 87.1 | 103 | 142 | 99.7 | 81 | 46.5 | 98.5 | 117 | 145 | 96.1 | 78.6 | 42 | 113 | 124 | 144 | viability, T/C [16]: 93.6%; viability, T/C [17]: 76.2%; viability, T/C [18]: 41.7%; viability, T/C [19]: 94.8%; viability, T/C [20]: 106%; viability, T/C [21]: 137%; viability, T/C [22]: 94.6%; viability, T/C [23]: 72.8%; viability, T/C [24]: 41.2%; viability, T/C [25]: 102%; viability, T/C [26]: 104%; viability, T/C [27]: 118%; viability, T/C [28]: 93.6%; viability, T/C [29]: 71.7%; viability, T/C [30]: 42.4%
